Laboratory results from BindingDB's records for doi:10.1016/j.bmcl.2003.12.089 (Ligand Pharmaceuticals, 2004).

Experiments:
[1] = molecular target: Retinoic acid receptor gamma (Homo sapiens) (UniProt P13631); test: Binding affinity against retinoic acid receptor gamma by [3H]ATRA displacement.
[2] = molecular target: Retinoic acid receptor beta (Homo sapiens) (UniProt P10826); test: Binding affinity against retinoic acid receptor beta by [3H]ATRA displacement.
Retinoic acid receptor beta (Homo sapiens), sequence (P10826 whole entry, looked up): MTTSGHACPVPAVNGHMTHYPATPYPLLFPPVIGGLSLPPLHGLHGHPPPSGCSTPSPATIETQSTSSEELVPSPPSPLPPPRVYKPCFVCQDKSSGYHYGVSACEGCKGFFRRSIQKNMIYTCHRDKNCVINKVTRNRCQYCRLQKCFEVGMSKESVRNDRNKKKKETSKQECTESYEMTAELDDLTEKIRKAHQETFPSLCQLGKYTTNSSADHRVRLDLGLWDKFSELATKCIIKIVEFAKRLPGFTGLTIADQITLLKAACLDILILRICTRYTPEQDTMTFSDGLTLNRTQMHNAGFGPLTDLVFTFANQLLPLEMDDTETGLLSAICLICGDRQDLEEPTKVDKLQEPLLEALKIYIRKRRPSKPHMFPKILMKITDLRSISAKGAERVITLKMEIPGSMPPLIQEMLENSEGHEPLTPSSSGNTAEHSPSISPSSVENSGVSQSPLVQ

Retinoic acid receptor gamma (Homo sapiens), sequence (P13631 whole entry, looked up): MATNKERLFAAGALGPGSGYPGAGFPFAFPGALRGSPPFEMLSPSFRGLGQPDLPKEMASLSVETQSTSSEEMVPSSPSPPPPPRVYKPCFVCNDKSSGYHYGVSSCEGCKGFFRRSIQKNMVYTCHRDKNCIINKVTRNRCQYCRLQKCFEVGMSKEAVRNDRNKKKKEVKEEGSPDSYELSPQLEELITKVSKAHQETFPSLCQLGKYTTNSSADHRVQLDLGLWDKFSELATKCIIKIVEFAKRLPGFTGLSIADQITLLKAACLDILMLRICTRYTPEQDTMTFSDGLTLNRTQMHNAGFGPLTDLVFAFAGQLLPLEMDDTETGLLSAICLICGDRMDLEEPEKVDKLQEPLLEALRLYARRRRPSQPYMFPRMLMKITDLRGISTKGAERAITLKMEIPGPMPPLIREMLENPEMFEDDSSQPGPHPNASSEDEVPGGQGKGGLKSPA

SMILES	Ki [1]	Ki [2]
CCOc1c(-c2cccc3cc(/C(C)=C/C(=O)O)sc23)cc(C(C)C)cc1C(C)C [(E)-3-[7-(2-Ethoxy-3,5-diisopropyl-phenyl)-benzo[b]thiophen-2-yl]-but-2-enoic acid]	> 10 µM	–
C/C(=C\C(=O)O)c1cc2c(-c3cc(C(C)(C)C)cc(C(C)(C)C)c3OCCC(F)F)cccc2s1 [(E)-3-{4-[3,5-Di-tert-butyl-2-(3,3-difluoro-propoxy)-phenyl]-benzo[b]thiophen-2-yl}-but-2-enoic acid]	> 10 µM	> 10 µM
CCOc1c(-c2cccc3sc(/C(C)=C/C(=O)O)cc23)cc(C(C)C)cc1C(C)C [(E)-3-[4-(2-Ethoxy-3,5-diisopropyl-phenyl)-benzo[b]thiophen-2-yl]-but-2-enoic acid]	10 µM	5.94 µM
C/C(=C\C(=O)O)c1cc2c(-c3cc(C(C)(C)C)cc(C(C)(C)C)c3OCCCF)cccc2s1 [(E)-3-{4-[3,5-Di-tert-butyl-2-(3-fluoro-propoxy)-phenyl]-benzo[b]thiophen-2-yl}-but-2-enoic acid]	> 10 µM	> 10 µM
CCOc1c(-c2cccc3cc(/C(C)=C/C(=O)O)oc23)cc(C(C)C)cc1C(C)C [(E)-3-[7-(2-Ethoxy-3,5-diisopropyl-phenyl)-benzofuran-2-yl]-but-2-enoic acid]	> 10 µM	> 10 µM
CCCOc1c(-c2cccc3sc(/C(C)=C/C(=O)O)cc23)cc(C(C)C)cc1C(C)C [(E)-3-[4-(3,5-Diisopropyl-2-propoxy-phenyl)-benzo[b]thiophen-2-yl]-but-2-enoic acid]	> 10 µM	> 10 µM
CCCOc1c(-c2cccc3cc(/C(C)=C/C(=O)O)oc23)cc(C(C)C)cc1C(C)C [(E)-3-[7-(3,5-Diisopropyl-2-propoxy-phenyl)-benzofuran-2-yl]-but-2-enoic acid]	> 10 µM	9.2 µM
C/C(=C\C(=O)O)c1cc2c(-c3cc(C(C)(C)C)cc(C(C)(C)C)c3OCC(F)F)cccc2s1 [(E)-3-{4-[3,5-Di-tert-butyl-2-(2,2-difluoro-ethoxy)-phenyl]-benzo[b]thiophen-2-yl}-but-2-enoic acid]	> 10 µM	> 10 µM
C/C(=C\C(=O)O)c1cc2c(-c3cc(C(C)(C)C)cc(C(C)(C)C)c3OCC(F)(F)F)cccc2s1 [(E)-3-{4-[3,5-Di-tert-butyl-2-(2,2,2-trifluoro-ethoxy)-phenyl]-benzo[b]thiophen-2-yl}-but-2-enoic acid]	> 10 µM	> 10 µM
C/C(=C\C(=O)O)c1cc2cccc(-c3cc(C(C)C)cc(C(C)C)c3OCC(F)F)c2o1 [(E)-3-{7-[2-(2,2-Difluoro-ethoxy)-3,5-diisopropyl-phenyl]-benzofuran-2-yl}-but-2-enoic acid]	> 10 µM	> 10 µM
C/C(=C(/F)C(=O)O)c1cc2cccc(-c3cc(C(C)C)cc(C(C)C)c3OCC(F)F)c2o1 [(Z)-3-{7-[2-(2,2-Difluoro-ethoxy)-3,5-diisopropyl-phenyl]-benzofuran-2-yl}-2-fluoro-but-2-enoic acid]	> 10 µM	> 10 µM
CCCCOc1c(-c2cccc3cc(/C(C)=C(\F)C(=O)O)oc23)cc(C(C)C)cc1C(C)C [(Z)-3-[7-(2-Butoxy-3,5-diisopropyl-phenyl)-benzofuran-2-yl]-2-fluoro-but-2-enoic acid]	> 10 µM	> 10 µM
C/C(=C\C(=O)O)c1cc2c(-c3cc(C(C)(C)C)cc(C(C)(C)C)c3C)cccc2s1 [(E)-3-[4-(3,5-Di-tert-butyl-2-methyl-phenyl)-benzo[b]thiophen-2-yl]-but-2-enoic acid]	> 10 µM	> 10 µM
C/C(=C\C(=O)O)c1cc2cccc(-c3cc(C(C)C)cc(C(C)C)c3OCC(F)(F)F)c2o1 [(E)-3-{7-[3,5-Diisopropyl-2-(2,2,2-trifluoro-ethoxy)-phenyl]-benzofuran-2-yl}-but-2-enoic acid]	> 10 µM	2.7 µM
C/C(=C/C=C/C(C)=C/C(=O)O)c1cc(C(C)(C)C)cc(C(C)(C)C)c1OCC(F)F [7-[3,5-Di-tert-butyl-2-(2,2-difluoro-ethoxy)-phenyl]-3-methyl-octa-2,4,6-trienoic acid]	> 1 µM	> 1 µM
CCCCCCCOc1c(-c2cccc3sc(/C(C)=C/C(=O)O)cc23)cc(C(C)(C)C)cc1C(C)(C)C [(E)-3-[4-(3,5-Di-tert-butyl-2-heptyloxy-phenyl)-benzo[b]thiophen-2-yl]-but-2-enoic acid]	> 10 µM	> 10 µM
C/C(=C\C(=O)O)c1cc2cccc(-c3cc(C(C)C)cc(C(C)C)c3OCCCF)c2o1 [(E)-3-{7-[2-(3-Fluoro-propoxy)-3,5-diisopropyl-phenyl]-benzofuran-2-yl}-but-2-enoic acid]	> 10 µM	> 10 µM
